Legend:
Type in all cases: cell-based, human
adherent PBMNC [1] = assay: Cell counts and viability of plastic adherent cells cultured with non-cytokine additives in polystyrene plates; design: % VIABLE: concentration or dose not given beside the values; conditions: for % VIABLE: propidium iodide
Description: Viability Determination: Prior to acquisition, 5 ul propidium iodide (PI) was added to each tube for use as a viability check. The cells were vortexed and acquired within 10 min of PI addition.
(§1) Enrichment and Culture of Adherent Cells Using Polystyrene Tissue Culture Plates: PBMNC were resuspended in culture media (X-VIVO 15™+10% autologous serum) at 2×10^6 cells/ml. Cells were placed into 48 well polystyrene tissue culture plates […] and incubated for 2 hours in a 5% CO2, ambient O2, 37° C. humidified incubator. Non-adherent cells were removed from the plates then wells were rinsed with X-VIVO 15™ containing no serum. Cells remaining in the wells were adherent cells. These cells were cultured by adding 2 ml of X-VIVO 15™ to each well plus GM-CSF and IL-4 at final concentrations of 50 ng/ml and 1000 U/ml or the following: cAMP at 0.5 mM, dibutyryl cAMP at 0.1 mM, NaF at 0.25 mM, theophylline at 0.5 mM, PGE at 0.1 mM, Vitamin D3 at 2.5 uM, Vitamin E at 0.1%, Retinoic Acid at 10^−6 M, PMA at 1 pM, Linoleic Acid at 5 ug/ml, or Ca^++ Ionophore at 10 mM. Furthermore, cells were also cultured with the above non-cytokine additives plus GM-CSF at 50 ng/ml. Cells were cultured in a 5% CO2, ambient O2, 37° C. humidified incubator for 7 days.
(§2) Results: In the set of experiments using plastic adherent cells grown in polystyrene tissue culture plates, a Day 0 analysis of the cells was not performed. However, these cultures were analyzed for the presence of DC on days 4 and 7. Analysis perfomed were cell counts, viability via propidium iodide, morphology under Wright-Geimsa staining, and immunohistochemical staining using an anti-S100 antibody.

T cells = assay: Allogeneic MLR with bulk PBMNC cultures grown with non-cytokine additives
Description: MLR's were setup using T cells as responders and dendritic cell enriched cultures as antigen presenters. Sheep red blood cells were prepared and used to erythrocyte rosette T cells from a MNC preparation as described in “Current Protocols in Immunology”, John Wiley & Sons Inc, 1995. Vol. 2, 7.2.1-7.2.4. Erythrocyte+(E+ ) T cells were resuspended to 1×10^6 cells/ml in RPMI 1640/10% FCS. Dendritic cells were resuspended to 1×10^6 cells/ml in RPMI 1640/10% FCS and mitomycin C was added at 25 ug/ml to inhibit proliferation. The tubes were incubated at 37° C. for 30 min. then washed 3 times with PBS-CMF/1% HA. […] […] The appropriate control wells were also prepared. Plates were incubated for 4 or 5 days at 37° C.
Each well was pulsed with 1 uCi of ^3H-thymidine in RPMI 1640/10% FCS. Plates were incubated overnight at 37° C.
Plates were harvested onto glass fiber filter strips using a cell harvester. Discs were placed into scintillation vials containing scintillation cocktail and samples were counted using a beta radiation counter.
(§3) Cytospin slide preparation, Wright-Geimsa and immunohistochemical staining of the cultured cells were conducted as described in Example 1 and 2 above. Mixed lymphocyte reactions (MLR's) were setup using T cells (responders) and dendritic cell enriched cultures (stimulators) from bulk PBMNC cultures, as described above in Example 1.
The functional capacity of cultured cells to induce T cell proliferation was measured in an allogeneic MLR. […] At the greatest ratio of 1:100, the differences in capacity to induce T cell proliferation is marginal between the GM-CSF/IL-4 cultured cells and the non-cytofine additive cultured cells.

adherent PBMNC [2] = assay: DC morphology (Wright-Geimsa) of plastic adherent cells cultured with non-cytokine additives
Description: (§4) Cytofunnels were attached to microscope slides. 50,000 to 100,000 cells were removed from each culture and resuspended in approximately 100 to 200 ul of PBS-CMF. Slides were placed in the Cytospin® centrifuge and spun at 100 rpm for 4 min. Cytofunnels were removed from the slides and the slides were air dried for 1 minute. Ten drops of Wright-Geimsa stain were placed onto each slide and allowed to fix for 1 to 2 minutes. Ten drops of water were added to each slide and allowed to sit for 2 to 4 minutes. The slides were rinsed and air dried.
(§5) Reading of Cytospin Slides: Slides were read under phase contrast microscopy, 40× and 60× oil magnification. One hundred cells were identified and characterized morphologically as either dendritic cells or non-dendritic cells (lymphocytes and monocyte, or CD34+-derived cells in those cases). Digital images were taken using a color monitor and color video printer.
as §1, §3, §2

Bulk PBMNC = assay: Morphologically identified dendritic cells in bulk PBMNC cultures with non-cytokine additives
Description: as §4, §5
Culture of Bulk PBMNC: PBMNC cells were cultured in X-VIVO 15™ supplemented with 2 mM L- glutamine. Cultures were initiated at 5×^05 cells/ml in PL2417 gas-permeable containers (20 ml). GM-CSF and IL-4 were added to the cultures at final concentrations of 50 ng/ml and 1000 U/ml or non-cytokine additives such as Vitamin D3 at 2.5 uM, Vitamin E at 0.1%, Linoleic Acid at 5 ug/ml, or Ca++ Ionophore at 10 mM. Addition and subtraction of cells, media, and growth factors to and from PL2417 gas-permeable containers was accomplished by spiking a Sampling Site Coupler into the sample port of the container followed by use of syringes and needles. Cells were cultured in a 5% CO2, ambient O2, 37° C. humidified incubator for 7 days.
as §3

CCCCC/C=C\C/C=C\CCCCCCCC(=O)O [Linoleic Acid]
TOTAL CELLS (adherent PBMNC [1]; Day 4, with GM-CSF present): 1.41E + 05
% VIABLE (adherent PBMNC [1]; Day 4, with GM-CSF present): 96.07%
TOTAL CELLS (adherent PBMNC [1]; Day 4, without GM-CSF): 1.99E + 05
% VIABLE (adherent PBMNC [1]; Day 4, without GM-CSF): 78.84%
TOTAL CELLS (adherent PBMNC [1]; Day 7, with GM-CSF present): 7.85E + 05
% VIABLE (adherent PBMNC [1]; Day 7, with GM-CSF present): 82.63%
TOTAL CELLS (adherent PBMNC [1]; Day 7, without GM-CSF): 1.19E + 05
% VIABLE (adherent PBMNC [1]; Day 7, without GM-CSF): 82.69%
Allogeneic MLR. Increase Over Background Proliferation (T cells; Day 7, Cell Culture:T cell Ratio 1:1): 6.1
Allogeneic MLR. Increase Over Background Proliferation (T cells; Day 7, Cell Culture:T cell Ratio 1:10): 3.1
Allogeneic MLR. Increase Over Background Proliferation (T cells; Day 7, Cell Culture:T cell Ratio 1:100): 1.1
% DC (adherent PBMNC [2]; Day 4, with GM-CSF present): 8.00%
% DC (adherent PBMNC [2]; Day 4, without GM-CSF): 3.00%
% DC (adherent PBMNC [2]; Day 7, with GM-CSF present): 9.00%
% DC (adherent PBMNC [2]; Day 7, without GM-CSF): 6.00%
morphologically identified DC (adherent PBMNC [2]; day 7, without GM-CSF added to additives): next highest percentages
% DC (Bulk PBMNC; Day 7): 5.00%
TOTAL # OF DC (Bulk PBMNC; Day 7, projected in culture): 4.63E+05
fold fewer DC (average total number projected in culture) than GM-CSF/IL-4 cultures (Bulk PBMNC; day 7): approximately 4 fold
